{"source": "patent US20070269406A1", "about": "“Transcatheter tumor immunoembolization” (priority 2005, published 2007)", "key": {"splenic lymphocytes": {"test_system": "splenic lymphocytes", "assay": "Ovalbumin-specific proliferative recall response of splenic lymphocytes after intrahepatic immunization", "assay_type": "in vivo, BALB/c mice", "conditions": "intrahepatic (portal vein) ovalbumin immunization; boosted day 7 with ovalbumin/CFA; splenic lymphocytes 14 days after boost; FIG. 1", "text": "Four groups of BALB/c mice (The Jackson Laboratory, Bar Harbor, ME) of 6-8 weeks of age consisted of Group 1 intraperitoneal administration of ovalbumin, Group 2 intrahepatic administration of ovalbumin, Group 3 intrahepatic administration of ovalbumin together with lipiodol, and Group 4 intrahepatic administration of ovalbumin together with lipiodol and Poly (I:C).\nMice in Group 1(5 mice per group) where administered one hundred micrograms of ovalbumin (grade V; Sigma Aldrich) dissolved in 0.1 mL of 0.9% saline solution intraperitoneally. The following procedures were performed for mice receiving intrahepatic immunization: Mice were anesthetized with an intraperitoneal injection of ketamin at a concentration of 0.075 mg/g and medetomidine 0.005 mg/g (Sigma Aldrich, St Louis, Mo.). A midline abdominal incision was made, and the viscera were exposed. One hundred micrograms of ovalbumin was dissolved in 0.1 mL of 0.9% saline solution was injected into the portal vein with a 30-gauge needle for mice in Group 2. Mice in Group 3 received one hundred micrograms of ovalbumin dissolved in 0.1 mL of lipiodol (Guerbet, Roissy CdG Cedex, France). […] Cells were harvested onto glass fiber filters, and the radioactivity incorporated was quantitated using a Wallac Betaplate liquid scintillation counter. Results were expressed as the mean cpm of triplicate cultures±SEM. […]"}, "[1]": {"test_system": "BALB/c T cells responding to C57/BL6 DC", "assay": "Mixed lymphocyte reaction, proliferation of responding allogeneic T cells", "assay_type": "cell-based, mice", "conditions": "3 day MLR; lipiodol-transfected C57/BL6 DC with naive BALB/c splenocytes; FIG. 9", "experimental": "C57/BL6 DC after transfection were irradiated (3,000 rad) and seeded in triplicate at various concentrations in a flat-bottom 96-well plate (Coming) for use as stimulator cells. Splenic T cells from BALB/c mice were isolated by gradient centrifugation over Ficoll-Paque (Amersham Pharmacia Biotech, Quebec) and T cell nylon wool column purification, and added as responders (5×10^5 cells/well). The mixed lymphocytes were cultured at 37° C. for 72 h in 200 μl of RPMI 1640 supplemented with 10% FCS, 100 U/ml of penicillin, and 100 μg/ml of streptomycin and pulsed with 1 μCi/well of ^3H-labelled thymidine (Amersham Pharmacia Biotech) for the last 16 h of culture. Cells were harvested onto glass fiber filters, and the radioactivity incorporated was quatitated using a Wallac Betaplate liquid scintillation counter (Beckman, Fullerton, Calif.). Results were expressed as the mean counts per min of triplicate cultures±SEM. In some experiments anti-IL-10 (JES5 2A5, Pharmingen) or isotype control antibody were added for the duration of the MLR at a concentration of 5 ug/ml.\nSince the specific function of DC in vivo is stimulation of T cell responses, we sought to determine whether the siRNA/lipiodol mixture had effects on inhibition of mixed lymphocyte reaction (MLR)."}, "IL-12 p70": {"test_system": "IL-12 p70", "assay": "IL-12 p70 production by LPS/TNF-activated bone marrow derived DC after siRNA transfection (ELISA)", "assay_type": "cell-based, C57/BL6 mice", "conditions": "day-7 bone marrow derived C57/BL6 DC; LPS/TNF activation day 8; supernatants day 10; FIG. 7", "experimental": "At Day 0, bone marrow cells were flushed from the femurs and tibias of C57/BL6 mice, washed and cultured in 6-well plates (Corning, N.Y.) at 4×10^6 cells/well in 4 ml of complete medium (RPMI 1640 supplemented with 2 mM L-glutamine, 100 U/ml penicillin, 100 μg of streptomycin, 50 μM 2-ME, and 10% FCS (all from Life Technologies, Ontario, Canada) supplemented with recombinant GM-CSF (10 ng/ml; PeproTech, Rocky Hill, N.J.) and recombinant mouse IL-4 (10 ng/ml; PeproTech). All cultures were incubated at 37° C. in 5% humidified CO2. Non-adherent cells were removed after 48 h of culture (Day 2) and fresh medium was added. After 7 days of culture, >90% of the cells expressed the characteristic DC-specific marker CD11c as determined by FACS. DC were washed and plated in 24-well plates at a concentration of 2×10^5 cells/well in 400 μl of serum-free RPMI 1640. Transfection with GenePorter, lipiodol, or naked siRNA was performed as described below on day 7 of culture. […]\n(§1) The supernatants from recall response T cell cultures or MLR were harvested and assessed for DC cytokines (IL-12p70, IL-10) and T cell cytokines (IFN-, IL-4) by ELISA. Cytokine-specific ELISA (Endogen, Rockford, Ill.) was used for detecting cytokine concentrations in culture supernatants according to the manufacturer's instructions using a Benchmark Microplate Reader (Bio-Rad, Hercules, Calif.). […]"}, "IL-4": {"test_system": "IL-4", "assay": "KLH recall response supernatants, IL-4 ELISA", "assay_type": "in vivo, C57BL/6 mice", "conditions": "14 days after immunization with siRNA/lipiodol, CFA and KLH, supernatants by ELISA, FIG. 14, FIG. 17", "experimental": "(§2) C57/BL6 mice were immunized intradermally at the interior side of both hind legs with 100 μl of KLH or ovalbumin (1 μg/μl) emulsified in CFA (Difco Laboratories, Detroit, Mich.) in the presence or absence of 10 nMol siRNA and 10% lipiodol. After 14 days mice were sacrificed and T cells extracted as described above.\n(§3) Proliferative recall responses to KLH and ovalbumin in immunized mice were assessed by sacrificing C57/BL6 mice 14 days after immunization with antigen-loaded DC. T cells were purified from suspensions of lymph nodes using CD4+ T cell column (R&D Systems) after washing in PBS. Purified T cells were cultured in 96 well plates with irradiated syngeneic splenocytes in triplicate and mixed with serial dilutions of KLH or OVA at concentrations ranging from 0-10 ug/ml. […] Using an automated cell harvester, the cells were collected onto glass microfiber filter, and the radioactive labeling incorporation was measured by a Wallac Betaplate liquid scintillation counter.\nas §1"}, "[2]": {"test_system": "CD4 T cells from draining lymph nodes", "assay": "KLH proliferative recall response after immunization with siRNA/lipiodol, CFA and KLH", "assay_type": "in vivo, C57BL/6 mice", "conditions": "lipiodol/CFA composition with KLH, identical protocol to Example 10; FIG. 15", "experimental": "as §2\nProliferative recall responses to KLH and ovalbumin in immunized mice were assessed by sacrificing C57/BL6 mice 14 days after immunization with antigen-loaded DC. T cells were purified from suspensions of lymph nodes using CD4+ T cell column (R&D Systems) after washing in PBS. Purified T cells were cultured in 96 well plates with irradiated syngeneic splenocytes in triplicate and mixed with serial dilutions of KLH or OVA at concentrations ranging from 0-10 ug/ml. Following a 72-h incubation, 1 μCi of [^3H]thymidine (Amersham) was added to each well for 16 h. Using an automated cell harvester, the cells were collected onto glass microfiber filter, and the radioactive labeling incorporation was measured by a Wallac Betaplate liquid scintillation counter.\nAccordingly, we used the KLH recall response as an indicator. C57BL/6 mice were immunized with the IL-12 siRNA/lipiodol mixture combined with CFA and KLH. […]"}, "IFN-γ": {"test_system": "IFN-γ", "assay": "KLH recall response supernatants, IFN-γ ELISA", "assay_type": "in vivo, C57BL/6 mice", "conditions": "14 days after immunization with siRNA/lipiodol, CFA and KLH, supernatants by ELISA, FIG. 13, FIG. 16", "experimental": "as §2, §3, §1"}, "[3]": {"conditions": "listed as Lipiodol-siRNA targeting IL-10"}}}
{"substance": "Poly (I:C)", "values": [{"measurement": "proliferative recall response to ovalbumin ([3H]thymidine)", "setting": "splenic lymphocytes", "value": "profound stimulation"}]}
{"substance": "mismatched siRNA: mismatched (mixed) control sequence (AACTGCCAGATGGATGGTGAC) (SEQ ID NO: 3) (listed as DNA, chemistry not given here) [reference compound]", "values": [{"measurement": "proliferation of responding T cells / allostimulatory ability of DC in MLR", "setting": "[1]", "value": "not the mismatched (mixed) control inhibited proliferation"}, {"measurement": "inhibition of IL-12 production", "setting": "IL-12 p70", "value": "no inhibitory effect"}]}
{"substance": "siRNA specific for IL-12p35: siRNA specific for IL-12p35 (AACCUGCUGAAGACCACAGAU) (SEQ ID NO: 1), Dharmacon (listed as RNA, chemistry not given here)", "values": [{"measurement": "proliferation of responding T cells / allostimulatory ability of DC in MLR", "setting": "[1]", "value": "inhibited proliferation"}, {"measurement": "inhibition of IL-12 production", "setting": "IL-12 p70", "value": "> 30", "unit": "%"}]}
{"substance": "siRNA targeting IL-10: siRNA specific for IL-10 (AATAAGCTCCAAGAGAAAGGC) (SEQ ID NO: 2), delivered in vivo in a lipiodol/CFA composition (lipiodol/CFA formulation, further chemistry not given here)", "values": [{"measurement": "IL-4 production in KLH recall response", "setting": "IL-4", "value": "reduced"}, {"measurement": "IL-4 production in KLH recall response", "setting": "IL-4; [3]", "value": "Decreased"}, {"measurement": "recall proliferative response to KLH", "setting": "[2]", "value": "increased"}, {"measurement": "IFN-γ production in KLH recall response", "setting": "IFN-γ", "value": "enhanced"}, {"measurement": "IFN-γ production in KLH recall response", "setting": "IFN-γ; [3]", "value": "Increased"}]}
